US9593149B2, “Amylin and calcitonin receptor agonist” (Novo Nordisk A/S, priority 2014, dated 2017)
Converted amounts (≈) assume the structure as drawn. Numbered stars: 1 amine (or outer) side, 2 acyl side, 3 side chain; on linkers, the order of the positions; unused ones are H or OH. Side chains are listed from the residue outwards. Peptide text beside a SMILES is read from it. * marks the point of attachment. C20 diacid = O=C(O)CCCCCCCCCCCCCCCCCCC(=O)*; C18 diacid = O=C(O)CCCCCCCCCCCCCCCCC(=O)*; γGlu = O=C(O)[C@H](CCC(=O)[*:2])N[*:1]

Columns and labels:
[1] = target: T1, human calcitonin (a) receptor, BHK570 cells (Homo sapiens, UniProt P30988); assay: Assay (II)a functional CRE-luciferase assay with albumin, human calcitonin receptor; assay type: cell-based; settings: Tested with HSA; read-out: hCTR funct. EC50
T1 construct: host or cells: BHK570
T1 sequence (P30988 25-474): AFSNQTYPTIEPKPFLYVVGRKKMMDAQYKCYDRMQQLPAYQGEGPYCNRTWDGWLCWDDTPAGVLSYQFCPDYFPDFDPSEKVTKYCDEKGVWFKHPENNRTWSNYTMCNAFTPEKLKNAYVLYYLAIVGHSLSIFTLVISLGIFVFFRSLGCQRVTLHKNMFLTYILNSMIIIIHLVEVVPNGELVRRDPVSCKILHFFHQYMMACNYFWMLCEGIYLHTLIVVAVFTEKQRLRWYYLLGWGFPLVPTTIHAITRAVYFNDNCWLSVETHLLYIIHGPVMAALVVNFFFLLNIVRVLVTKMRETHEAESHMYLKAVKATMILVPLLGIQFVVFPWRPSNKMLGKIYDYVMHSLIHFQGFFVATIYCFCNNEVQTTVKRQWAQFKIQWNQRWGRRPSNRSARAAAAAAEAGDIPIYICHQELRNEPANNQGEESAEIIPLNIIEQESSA
Text: (§1) Assay(II)a—Human Calcitonin and Amylin Receptor Assay
(§2) 1. Luciferase Assay Outline
(§3) Activation of calcitonin and amylin (co-expression of calcitonin receptor and receptor activity modifying proteins (RAMP)) receptors lead to increased intracellular concentrations of cAMP. Consequently, transcription is activated by promoters containing multiple copies of the cAMP response element (CRE). It is thus possible to measure amylin activity by the use of a CRE luciferase reporter gene introduced into BHK cells also expressing calcitonin or amylin receptors.
(§4) 2. Construction of Calcitonin (a)—and Amylin 3(a)—Receptor/CRE-Luc Cell Line.
(§5) A BHK570 cell line was stably transfected with the human calcitonin receptor and a CRE-responsive luciferase reporter gene. The cell line was further transfected with RAMP-3, using standard methods. This turns the calcitonin receptor into an amylin 3(a) receptor. Methotrexate, Neomycin, and Hygromycin are selection markers for luciferase, the calcitonin receptor, and RAMP-3, respectively.
(§6) To perform activity assays, BHK calcitonin (a) receptor- or amylin 3(a)-receptor/CRE-luc cells were seeded in white 96 well culture plates at a density of about 20.000 cells/well. […] After incubation overnight at 37° C. and 5% CO2, the growth medium was replaced by 50 μl/well assay medium (DMEM (without phenol red), Glutamax™, 10% FBS, and 10 mM Hepes, pH 7.4). Further, 50 μl/well of standard or sample in assay buffer were added.
(§7) After 3 hours incubation at 37° C. and 5% CO2, the assay medium with standard or sample were removed and replaced by 100 μl/well PBS. Further, 100 μl/well LucLite™ was added. The plates were sealed and incubated at room temperature for 30 minutes. Finally, luminescence was tested on a TopCounter (Packard) in SPC (single photon counting) mode.

[2] = target: T1, human calcitonin (a) receptor, BHK570 cells; assay: Assay (II)b functional CRE-luciferase assay without albumin, human calcitonin receptor; assay type: cell-based; settings: Tested without HSA; read-out: hCTR funct. EC50
Summary of the method: (§8)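 BHK570 cells stably expressing human calcitonin receptor with CRE-luciferase reporter, plus RAMP-3 for the amylin 3(a) line. Cells stimulated 3 hours at 37 °C in albumin-free assay medium (0.1% ovalbumin, 10 mM Hepes pH 7.4); cAMP-driven luciferase read by luminescence.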

[3] = Assay (IV) determination of solubility; assay type: physicochemical
Method: Assay (IV)—Determination of Solubility
The mimylin peptide was dissolved in water at ˜500 nmol/ml and mixed 1:1 with a series of buffers (100 mM glycylglycine pH 3.0, 100 mM glycylglycine pH 4.0, 100 mM glycylglycine pH 5.0, 100 mM bistrispropane pH 6.0, 100 mM bistrispropane pH 6.5, 100 mM bistrispropane pH 7.0, 100 mM bistrispropane pH 7.5, 100 mM bistrispropane pH 8.0).

rat calcitonin receptor = target: T2, rat calcitonin receptor (Rattus norvegicus, UniProt P32214); assay: Assay (VIII) binding to the rat calcitonin receptor; settings: membranes; read-out: rCT-R binding IC50
T2 construct: expressed in transfected cells; host or cells: BHK tk'ts 13 (transient, FuGENE 6)
T2 sequence (P32214 25-479 isoform P32214-2 limits assumed): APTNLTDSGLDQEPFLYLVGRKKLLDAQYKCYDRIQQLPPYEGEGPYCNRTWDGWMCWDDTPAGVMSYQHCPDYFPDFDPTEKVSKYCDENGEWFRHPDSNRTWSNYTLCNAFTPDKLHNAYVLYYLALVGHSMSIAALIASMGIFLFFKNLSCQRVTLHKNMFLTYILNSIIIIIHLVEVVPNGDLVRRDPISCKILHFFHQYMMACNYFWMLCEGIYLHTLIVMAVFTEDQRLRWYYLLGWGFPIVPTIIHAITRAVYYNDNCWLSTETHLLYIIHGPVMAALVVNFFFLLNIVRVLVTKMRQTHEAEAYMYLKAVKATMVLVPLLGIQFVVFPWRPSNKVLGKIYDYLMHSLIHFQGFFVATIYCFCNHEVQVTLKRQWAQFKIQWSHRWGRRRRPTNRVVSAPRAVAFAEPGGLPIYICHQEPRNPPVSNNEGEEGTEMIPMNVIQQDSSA
Summary of the method: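 Competition binding on membranes from BHK tk'ts 13 cells transiently transfected with rat calcitonin receptor, otherwise run as the human receptor assay. Plates washed in cold HBSS, lysed in 0.1 M NaOH/1% SDS and scintillation-counted. IC50 from one-site competition fit as affinity measure.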

[4] = target: T3, human amylin 3(a) receptor (human calcitonin receptor + RAMP-3), BHK570 cells (Homo sapiens, UniProt O60896+P30988); assay: Assay (II)b functional CRE-luciferase assay without albumin, human amylin receptor; assay type: cell-based; settings: Tested without HSA; read-out: hAmylin-R funct. EC50
T3 construct: host or cells: BHK570
Summary of the method: as §8

[5] = target: T3, human amylin 3(a) receptor (human calcitonin receptor + RAMP-3), BHK570 cells; assay: Assay (II)a functional CRE-luciferase assay with albumin, human amylin receptor; assay type: cell-based; settings: Tested with HSA; read-out: hAmylin-R funct. EC50
Text: as §1, §2, §3, §4, §5, §6, §7

[6] = target: T4, human amylin receptor (human calcitonin receptor + human RAMP3), BHK tk'ts 13 cells (Homo sapiens, UniProt O60896+P30988); assay: Assay (Va) binding to the human amylin receptor (whole cell); settings: read-out: hAmylin-R binding IC50
T4 construct: expressed in transfected cells; host or cells: BHK tk'ts 13
Method: The day before the assay the cells were Seeded into Poly-D-Lysin coated 384W Opaque White, BD BioCoat plates (10000 cells/well) and Incubated overnight at 37° C., 5% CO2, 95% humidity.

T3 sequence (O60896 24-148, one chain of several): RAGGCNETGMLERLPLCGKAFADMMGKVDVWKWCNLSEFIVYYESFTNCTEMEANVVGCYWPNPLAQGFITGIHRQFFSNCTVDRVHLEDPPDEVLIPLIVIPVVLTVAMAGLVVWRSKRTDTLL
T4 sequence (O60896 24-148, one chain of several): as above

EC50 [1] [nM] | EC50 [2] [nM] | solubility at 18 h ([3]; bistrispropane buffer, pH 6.5) [µM] | solubility at 18 h ([3]; bistrispropane buffer, pH 7.5) [µM] | solubility at 18 h ([3]; bistrispropane buffer, pH 6.0) [µM] | solubility at 18 h ([3]; bistrispropane buffer, pH 7.0) [µM] | solubility at 18 h ([3]; bistrispropane buffer, pH 8.0) [µM] | solubility at 18 h ([3]; glycylglycine buffer, pH 3.0) [µM] | solubility at 18 h ([3]; glycylglycine buffer, pH 4.0) [µM] | solubility at 18 h ([3]; glycylglycine buffer, pH 5.0) [µM] | IC50 (rat calcitonin receptor) [nM] | EC50 [4] [nM] | EC50 [5] [nM] | IC50 [6] [nM] | SMILES
0.03 | 0.034 | ≥ 200 | ≥ 200 | ≥ 200 | ≥ 200 | ≥ 200 | ≥ 200 | ≥ 200 | ≥ 200 | 0.114 | 0.039 | 0.074 | – | CC(C)C[C@H](NC(=O)[C@H](C)NC(=O)[C@H](C)NC(=O)[C@@H](NC(=O)[C@H](CO)NC(=O)[C@H](CC(C)C)NC(=O)[C@H](CCCCNC(=O)CC[C@H](NC(=O)CCCCCCCCCCCCCCCCCCC(=O)O)C(=O)O)NC(=O)[C@H](CO)NC(=O)[C@H](C)N)[C@@H](C)O)C(=O)NCC(=O)N[C@@H](CCCNC(=N)N)C(=O)N[C@@H](CC(C)C)C(=O)N[C@@H](CO)C(=O)N[C@@H](C)C(=O)N[C@@H](CCC(=O)O)C(=O)N[C@@H](CC(C)C)C(=O)N[C@@H](Cc1c[nH]cn1)C(=O)N[C@@H](CCC(=O)O)C(=O)N[C@@H](CC(C)C)C(=O)N[C@@H](C)C(=O)N[C@H](C(=O)N[C@@H](CC(C)C)C(=O)N1CCC[C@H]1C(=O)N[C@@H](CCCNC(=N)N)C(=O)N[C@H](C(=O)N[C@@H](CCC(=O)O)C(=O)N[C@H](C(=O)NCC(=O)N[C@@H](CO)C(=O)NCC(=O)N[C@@H](CO)C(=O)N1CCC[C@H]1C(N)=O)[C@@H](C)O)[C@@H](C)O)[C@@H](C)O [compound 52, [des1, 4K(C20 diacid-gGlu), 30S, 31G]mimylin] (H-ASK([γGlu-C20 diacid])LSTAALGRLSAELHELATLPRTETGSGSP-NH2; N-terminus assumed)
0.009 | 0.028 | ≥ 200 | ≥ 200 | ≥ 200 | ≥ 200 | ≥ 200 | ≥ 200 | ≥ 200 | ≥ 200 | – | 0.033 | 0.019 | 0.653 | CC(C)C[C@H](NC(=O)[C@H](CCC(=O)O)NC(=O)[C@H](Cc1c[nH]cn1)NC(=O)[C@H](CC(C)C)NC(=O)[C@H](CCC(=O)O)NC(=O)[C@H](C)NC(=O)[C@H](CO)NC(=O)[C@H](CC(C)C)NC(=O)[C@H](CCCNC(=N)N)NC(=O)CNC(=O)[C@H](CC(C)C)NC(=O)[C@@H](NC(=O)[C@H](C)NC(=O)[C@@H](NC(=O)[C@@H](NC(=O)[C@H](CC(C)C)NC(=O)[C@H](CCC(=O)O)NC(=O)[C@H](CO)NC(=O)[C@H](C)NC(=O)CC[C@H](NC(=O)CCCCCCCCCCCCCCCCC(=O)O)C(=O)O)[C@@H](C)O)[C@@H](C)O)C(C)C)C(=O)N[C@@H](C)C(=O)N[C@H](C(=O)N[C@@H](CC(C)C)C(=O)N1CCC[C@H]1C(=O)N[C@@H](CCCNC(=N)N)C(=O)N[C@H](C(=O)N[C@@H](CCC(=O)O)C(=O)N[C@H](C(=O)NCC(=O)N[C@@H](CO)C(=O)NCC(=O)N[C@@H](CO)C(=O)N1CCC[C@H]1C(N)=O)[C@@H](C)O)[C@@H](C)O)[C@@H](C)O [compound 85, [N-terminal(C18 diacid-gGlu), des1, 6T, 9V, 30S, 31G]mimylin] ({C18 diacid-γGlu}-ASELTTAVLGRLSAELHELATLPRTETGSGSP-NH2)
0.049 | 0.024 | 1 (≈ 3.72 µg/mL) | – | – | – | – | ≥ 200 | 1 (≈ 3.72 µg/mL) | 2 (≈ 7.44 µg/mL) | – | 0.022 | 0.052 | 0.222 | CC(C)C[C@H](NC(=O)CNC(=O)[C@H](CO)NC(=O)[C@H](C)NC(=O)CCCCCCCCCCCCCCCCCCC(=O)O)C(=O)N[C@@H](CO)C(=O)N[C@H](C(=O)N[C@@H](C)C(=O)N[C@@H](C)C(=O)N[C@@H](CC(C)C)C(=O)NCC(=O)N[C@@H](CCCNC(=N)N)C(=O)N[C@@H](CC(C)C)C(=O)N[C@@H](CO)C(=O)N[C@@H](CCC(N)=O)C(=O)N[C@@H](CCC(=O)O)C(=O)N[C@@H](CC(C)C)C(=O)N[C@@H](Cc1c[nH]cn1)C(=O)N[C@@H](CCC(=O)O)C(=O)N[C@@H](CC(C)C)C(=O)N[C@@H](CCC(N)=O)C(=O)N[C@H](C(=O)N[C@@H](Cc1ccc(O)cc1)C(=O)N1CCC[C@H]1C(=O)N[C@@H](CCCNC(=N)N)C(=O)N[C@H](C(=O)N[C@@H](CCC(=O)O)C(=O)N[C@H](C(=O)NCC(=O)N[C@@H](CO)C(=O)NCC(=O)N[C@H](C(=O)N[C@@H](Cc1ccc(O)cc1)C(N)=O)[C@@H](C)O)[C@@H](C)O)[C@@H](C)O)[C@@H](C)O)[C@@H](C)O [compound 111, [N-terminal(C20 diacid), des1, 4G, 15Q, 21Q, 23Y, 30S, 31G, 32T, 33Y]mimylin] ({C20 diacid}-ASGLSTAALGRLSQELHELQTYPRTETGSGTY-NH2)
